Where “and” joins values, the source holds several entries; their conditions need not be identical. Equal entries are not always repeated.
Columns and labels:
[1] = tested on: skeletal muscle total creatine; settings: cited from earlier work
serum insulin = experiment: Serum insulin concentration and area under the concentration time curve after oral challenge (nasogastric) in healthy male volunteers; assay type: in vivo, human
Experimental: (§1) Measurement of creatine levels in the plasma preferably involves removing venous blood from the dorsal surface of a heated hand immediately before and 20, 40, and 60 min after the ingestion of a supplement. In addition, urine may be collected before and on the day of ingestion of a supplement. Plasma and urine creatine may be measured using high performance liquid chromatography and serum insulin was measured using a radioimmunoassay technique, an example of which is described in U.S. Pat. No. 5,968,900, which is fully incorporated herein by reference.
Aim: The aim of this study was to identify a supplement that would optimize the augmentation of Cr retention after its supplementation, by increasing the insulinotropic effect, whilst consuming a lower carbohydrate load.
Study design: Randomized, double-blind, placebo controlled, cross-over design.
Volunteers: 7 healthy male volunteers. All volunteers were eligible to participate after satisfactory results from the medical screening.
(§2) Protocol: The volunteers were required to attend to the lab for 3 trials. Each consisted of an afternoon arm, and a morning arm. Each arm lasted for approximately 4 hours. The volunteers were asked to relax on a bed. A baseline blood sample was taken. Each solution was administered via a nasogastric tube (mean time of administration was approximately 7 minutes). Half-way through the administration, the stop clock was started. After the three hour protocol, a second solution was administered. The third solution was administered in the following morning arm of the trial. Each trial was separated by at least 12 days.
(§3) Each solution was administered via a nasogastric tube three times over 24 hours. A total amount of 15 g or Cr was administered.
Blood sampling: Blood samples were collected for three hours after administration of the solution. Eleven blood samples obtained (including baseline sample). For the first hour after administration of the solution, a blood sample was obtained at 15 minute intervals. During the second and third hour of sampling, the intervals were increased to 20 minutes. Approximately 3 ml of blood was transferred to a lithium heparin containing tube and a further 3 ml were allowed to clot for plasma Cr and creatinine (Crn), and serum insulin analysis respectively.
Statistical analysis: A two-way repeated measure ANOVA statistical test was used. Significance was set at p<0.05. When a significant difference was observed, Fisher's post hoc analysis was performed in order to locate the difference. All individual results are included in the appendix.

[2] = human, in vivo
Experimental: as §1, §2, §3
Blood sampling: Blood samples were collected for three hours after administration of the solution. […]

[3] = Urinary creatine excretion (24 h collections: 0-24, 24-48, 0-48 h) after administration of the solutions; assay type: in vivo, human; settings: p<0.05
Experimental: as §1
Urinary Creatine Content:
Three 24 h hour urinary collections were obtained from each volunteer for each arm of the study. The first collection (baseline) was completed prior to administration of the solution. The second collection (0-24 h) was initiated immediately after the administration of the first solution, until 24 h post administration. […] The volume of the urine excreted was recorded and a 5 ml sample was frozen at −20° C. until analysis. The samples were analyzed for Cr and Crn.
To calculate the total creatine (TCr) the Cr and Crn were added together. The TCr increase was calculated by subtracting the baseline TCr from the 0-24 h excretion and/or the 24-48 h excretion. The 0-48 h content was calculated by adding the 0-24 h TCr with the 24-48 h TCr increase in excretion. […]

SMILES: CN(CC(=O)O)C(=N)N [carbohydrate free creatine, creatine]
- increase of total muscle creatine ([1]; 5 g creatine four times a day for 5 days): about 20 mmol/kg dm

SMILES: CN(CC(=O)O)C(=N)N [creatine, N-methyl-N-guanyl glycine]
- increase of muscle total creatine content, on average ([1]; 20 g/day for 5 days): 20%
- increase in human skeletal muscle total creatine (phosphocreatine and free creatine) stores ([1]; dietary creatine supplementation): 20-50%

SMILES: CN(CC(=O)O)C(=N)N [C, creatine]
- serum insulin concentration compared to PAC (serum insulin; FIG. 1, first oral challenge, from 15-140 min): significantly lower
- serum insulin concentration compared to CHO (serum insulin; FIG. 1, first oral challenge, from 15-160 min): significantly lower
- serum insulin concentration compared to CHO and PAC (serum insulin; FIG. 2, third oral challenge, from 15-160 min): significantly lower
- serum insulin AUC compared to CHO and PAC (serum insulin; FIG. 3, 80 min following the first oral challenge, p=0.02): significantly lower
- serum insulin AUC compared to CHO and PAC (serum insulin; FIG. 4, 180 min following the first oral challenge, p=0.015): significantly lower
- serum insulin AUC compared to CHO and PAC (serum insulin; FIG. 5, 80 min following the third oral challenge, p<0.001): significantly lower
- serum insulin AUC compared to CHO and PAC (serum insulin; FIG. 6, 180 min following the first oral challenge (so in the source), p<0.001): significantly lower
- insulin area under the time curve response (serum insulin; first oral challenge, 0-80 min (as headed), individual subject): −235 mU/l/min and −127 mU/l/min and −112 mU/l/min and −166 mU/l/min and −146 mU/l/min and −714 mU/l/min and −566 mU/l/min
- insulin area under the time curve response (serum insulin; first oral challenge, 0-80 min (as headed), mean of 7 subjects): −295 mU/l/min
- insulin area under the time curve response (serum insulin; first oral challenge, 0-180 min (as headed), individual subject): −32 mU/l/min and −48 mU/l/min and −50 mU/l/min and 21 mU/l/min and −11 mU/l/min and −299 mU/l/min and −186 mU/l/min
- insulin area under the time curve response (serum insulin; first oral challenge, 0-180 min (as headed), mean of 7 subjects): −86 mU/l/min
- serum insulin concentration (serum insulin; first oral challenge, 45 min, individual subject): 9.02 mU/l and 7.85 mU/l and 9.58 mU/l and 10.16 mU/l and 9.61 mU/l and 9.34 mU/l and 11.85 mU/l
- serum insulin concentration (serum insulin; first oral challenge, 45 min, mean of 7 subjects): 9.63 mU/l
- serum insulin concentration (serum insulin; first oral challenge, 60 min, individual subject): 9.17 mU/l and 7.54 mU/l and 9.74 mU/l and 8.51 mU/l
- insulin area under the time curve response (serum insulin; third oral challenge, 0-80 min, individual subject): 10 mU/l/min (2×) and −7 mU/l/min and −23 mU/l/min and 132 mU/l/min and −34 mU/l/min and −18 mU/l/min
- insulin area under the time curve response (serum insulin; third oral challenge, 0-80 min, mean of 7 subjects): 10 mU/l/min
- insulin area under the time curve response (serum insulin; third oral challenge, 0-180 min, individual subject): 274 mU/l/min (2×) and −63 mU/l/min and −109 mU/l/min and 195 mU/l/min and 1406 mU/l/min and −99 mU/l/min
- insulin area under the time curve response (serum insulin; third oral challenge, 0-180 min, mean of 7 subjects): 268 mU/l/min
- serum insulin concentration (serum insulin; third oral challenge, 0 min, individual subject): 8.91 mU/l (2×) and 8.31 mU/l and 10.38 mU/l and 9.64 mU/l and 10.31 mU/l and 8.65 mU/l
- serum insulin concentration (serum insulin; third oral challenge, 0 min, mean of 7 subjects): 9.30 mU/l
- serum insulin concentration (serum insulin; third oral challenge, 15 min, individual subject): 8.94 mU/l (2×) and 7.78 mU/l and 10.23 mU/l and 9.84 mU/l and 10.29 mU/l and 11.08 mU/l
- serum insulin concentration (serum insulin; third oral challenge, 15 min, mean of 7 subjects): 9.59 mU/l
- serum insulin concentration (serum insulin; third oral challenge, 30 min, individual subject): 9.44 mU/l (2×) and 7.90 mU/l and 10.92 mU/l and 10.89 mU/l and 9.80 mU/l and 11.61 mU/l
- serum insulin concentration (serum insulin; third oral challenge, 30 min, mean of 7 subjects): 10.00 mU/l
- serum insulin concentration (serum insulin; third oral challenge, 45 min, individual subject): 8.87 mU/l (2×) and 7.24 mU/l and 9.56 mU/l and 9.07 mU/l and 10.07 mU/l and 9.32 mU/l
- serum insulin concentration (serum insulin; third oral challenge, 45 min, mean of 7 subjects): 9.00 mU/l
- serum insulin concentration (serum insulin; third oral challenge, 60 min, individual subject): 8.92 mU/l (2×) and 7.99 mU/l and 10.03 mU/l and 8.61 mU/l and 9.69 mU/l and 10.81 mU/l
- serum insulin concentration (serum insulin; third oral challenge, 60 min, mean of 7 subjects): 9.28 mU/l
- serum insulin concentration (serum insulin; third oral challenge, 80 min, individual subject): 9.06 mU/l (2×) and 8.54 mU/l and 9.79 mU/l and 9.45 mU/l and 10.22 mU/l and 8.93 mU/l
- serum insulin concentration (serum insulin; third oral challenge, 80 min, mean of 7 subjects): 9.29 mU/l
- serum insulin concentration (serum insulin; third oral challenge, 100 min, individual subject): 8.54 mU/l (2×) and 8.56 mU/l and 9.59 mU/l (2×) and 9.34 mU/l and 9.38 mU/l
- serum insulin concentration (serum insulin; third oral challenge, 100 min, mean of 7 subjects): 9.08 mU/l
- serum insulin concentration (serum insulin; third oral challenge, 120 min, individual subject): 8.76 mU/l (2×) and 8.20 mU/l and 10.07 mU/l and 8.48 mU/l and 10.27 mU/l and 9.10 mU/l
- serum insulin concentration (serum insulin; third oral challenge, 120 min, mean of 7 subjects): 9.09 mU/l
- serum insulin concentration (serum insulin; third oral challenge, 140 min, individual subject): 8.29 mU/l (2×) and 8.44 mU/l and 8.57 mU/l and 8.55 mU/l and 8.56 mU/l and 9.20 mU/l
- serum insulin concentration (serum insulin; third oral challenge, 140 min, mean of 7 subjects): 8.56 mU/l
- serum insulin concentration (serum insulin; third oral challenge, 160 min, individual subject): 8.69 mU/l (2×) and 8.34 mU/l and 8.66 mU/l and 10.01 mU/l and 9.02 mU/l and 9.73 mU/l
- serum insulin concentration (serum insulin; third oral challenge, 160 min, mean of 7 subjects): 9.02 mU/l
- serum insulin concentration (serum insulin; third oral challenge, 180 min, individual subject): 8.58 mU/l (3×) and 8.61 mU/l and 8.56 mU/l and 9.43 mU/l and 9.04 mU/l
- serum insulin concentration (serum insulin; third oral challenge, 180 min, mean of 7 subjects): 8.77 mU/l
- plasma creatine AUC compared to CHO and PAC [2]: significantly greater
- urinary creatine content compared to CHO and PAC ([3]; FIG. 11, 0-24 h): significantly greater
- urinary creatine content compared to CHO and PAC ([3]; FIG. 13, 0-48 h following supplementation): significantly greater

Source: patent publication US20060045906A1, “Compositions and methods for activating protein synthesis and deactivating catabolic processes in skeletal muscle” (priority 2004, published 2006)
